Here are results for 19 compounds from patent US20140323573A1, “METABOLIZABLE SALTS AND USE THEREOF IN DIAGNOSTICS AND THERAPY” (priority 2011, published 2014).

SMILES strings stand for the structures. Where a name gives a salt, the structure may show the parent alone. Read-outs that look alike come from different tables or passages of the source.

Data set [1] is described as follows: Osmotic coefficient and osmolality of solutions. It is filed as physicochemical. An excerpt:
a) Osmotic Coefficients of Compounds According to the Invention and not According to the Invention

Data set [2] is described as follows: Buffer properties / acid-base data of 0.1 molar salt solutions (37° C.). Particulars: 0.1 molar solution; for NaOH ΔpH 7.2-7.6: NaOH necessary for ΔpH of 7.2-7.6; for Titr. on 7.4: NaOH necessary to set pH 7.4; for β (at 7.4) buffer capacity: calculated from NaOH for ΔpH 7.2-7.6.
Excerpt: NaOH mmol/l for ΔpH of 7.2-7.6: how much NaOH in mmol/l is necessary for that ΔpH.
2. β (mmol/l/pH): the buffer capacity calculated therefrom at pH 7.40.
Titr on 7.4 (mmol/l): how much NaOH is necessary to set a pH-value of 7.4.
If a physiological pH-value of 7.4 is to be set in a 0.1 molar solution then the corresponding additives are specified in the column Titration pH=7.4. It is therefore specified how much NaOH (mmol/l) is to be added to set that pH-value.
For data set [3] the following is noted: cited from earlier work; for pK-values (first value) / pK-values (second value) / pK-values (third value): Table I, 37° C.
The nature of data set [4]: Feed of bicarbonate: arginine / arginine acetate solution equilibrated with CO2. It is filed as physicochemical. Particulars: ionic strength 160 mmol/l and 37° C. How it is done: If a solution with 48 mmol/l arginine is mixed with 24 mmol/l acetic acid that gives a mixture respectively comprising 24 mmol/l arginine and arginine acetate with a pH-value of about 8.6. That pH-value corresponds to the effective pK value of arginine (ionic strength 160 mmol/l and 37° C.). If that solution is necessarily equilibrated after infusion in the patient to a pCO2 of about 40 mmHg a maximum of 24 mmol/l arginine HCO3 will occur. Thus the physiological values of about 24 mmol/l HCO3 and a pH-value of about 7.4 will occur (for comparison arginine equilibration with pure CO2 in Table 1).

For data set [5] the following is noted: 0.1 molar solution, (literature); cited from earlier work.

In data set [1], `N=C(N)NCCC[C@H](N)C(=O)O.O=C(O)O` [Arg HCO3] returned an Osmot. valence of 2. Further, the Osmot. coefficient stood at 0.833 in data set [1] (0.1 molar solution); 0.2 m 0.833 100% CO2 at 37 °C in data set [1] (0.2 m, 100% CO2 at 37° C.); 0.3 m 0.763 100% CO2 at 37 °C in data set [1] (0.3 m, 100% CO2 at 37° C.).

Consider `Cl.N=C(N)NCCC[C@H](N)C(=O)O` [Arg HCl, arginine hydrochloride], for which, in data set [1], the Osmot. valence came out at 2. This compound gave an Osmot. coefficient in data set [1] (0.1 molar solution) of 0.895.

As to `CC(=O)O.N=C(N)NCCC[C@H](N)C(=O)O` [Arg acetate, arginine acetate], in data set [2], the pH is listed as 5.99, the “NaOH ΔpH 7.2-7.6” value turned out to be 2.8 mmol/L, the “Titr. on 7.4” value is 7.3 mmol/L and the “β (at 7.4) buffer capacity” value is reported as 7.0 mmol/l/pH. The pK in data set [3] is recorded as 4.6.

On to `N=C(N)NCCC[C@H](N)C(=O)O` [Arginine, arginine], for which the “effective pK value” in data set [4] was “about 8.6”. Also, the pH in data set [2] amounted to 10.26. In addition, in data set [3], the “pK-values (first value)” value is recorded as 2.0, the “pK-values (second value)” value is recorded as 9.0 and the “pK-values (third value)” value is 12.1. This compound gave an Osmot. valence in data set [1] of 1. In data set [1] (0.1 molar solution), this compound came in with an Osmot. coefficient of 0.980 and an osmolality of 98 mosmol/kg H2O.

As for `O=C(O)O` [HCO3^−], the pK in data set [3] was 6.1.

Regarding `O=S(=O)(O)CCN1CCN(CCO)CC1` [Hepes], the pK in data set [3] is on record as 7.35.

As for `O=C(O)CC(O)(CC(=O)O)C(=O)O` [K3 citrate], the Osmot. valence in data set [1] was 4. In addition, the Osmot. coefficient in data set [1] (0.1 molar solution) came out at 0.681.

In the case of `O=C(O)CC(O)(CC(=O)O)C(=O)O` [Lys3 citrate, tri-lysine citrate], in data set [2], the pH was 6.88, the “NaOH ΔpH 7.2-7.6” value came to 5.9 mmol/L, the “Titr. on 7.4” value worked out at 5.8 mmol/L and the “β (at 7.4) buffer capacity” value was 14.8 mmol/l/pH. Moreover, the Osmot. coefficient in data set [1] (0.1 molar solution) is listed as 0.715.

For the compound `CC(=O)O.NCCCC[C@H](N)C(=O)O` [Lysine Acetate, lysine acetate], in data set [2], the pH turned out to be 5.99, the “NaOH ΔpH 7.2-7.6” value amounted to 2.5 mmol/L, the “Titr. on 7.4” value is 6.8 mmol/L and the “β (at 7.4) buffer capacity” value is reported as 6.3 mmol/l/pH.

Take `NCCCC[C@H](N)C(=O)O` [Lysine, lysine]: in data set [2], the pH was determined as 9.55. In data set [3], the “pK-values (first value)” value was 2.2, the “pK-values (second value)” value is given as 8.9 and the “pK-values (third value)” value is reported as 10.3. The compound further displayed an Osmot. valence in data set [1] of 1. In data set [1] (0.1 molar solution), this compound yielded an Osmot. coefficient of 1.000.

Turning to `N` [NH4^+], the pK in data set [3] is 9.0.

`O=C(O)CC(O)(CC(=O)O)C(=O)O` [Na3 citrate] returned an Osmot. valence in data set [1] of 4. For the same compound, the Osmot. coefficient in data set [1] (0.1 molar solution) is on record as 0.681.

With `[Cl-].[Na+]` [NaCl], the Osmot. coefficient in data set [5] is given as 0.926. The compound further had an Osmot. valence in data set [1] of 2.

In data set [1], `O=C([O-])O.[Na+]` [NaHCO3] registered an Osmot. valence of 2. In data set [1] (0.1 molar solution, (assumed)), this compound showed an Osmot. coefficient of 0.926.

Regarding `NC(CO)(CO)CO` [Tris], the pK in data set [3] was 8.2.

Take `CC(=O)O` [acetic acid]: in data set [3], the “pK-values (first value)” value is 4.6.

For `O=C(O)O` [carbonic acid], in data set [3], the “pK-values (first value)” value is given as 6.1.

Consider `O=C(O)CC(O)(CC(=O)O)C(=O)O` [citric acid], for which, in data set [3], the “pK-values (first value)” value is given as 3.0, the “pK-values (second value)” value is on record as 4.4 and the “pK-values (third value)” value is given as 5.8. Besides, the Osmot. valence in data set [1] is given as 3. In addition, the Osmot. coefficient in data set [1] (0.1 molar solution) is 0.555.

Regarding `O=C(O)CC(O)C(=O)O` (stereo not shown) [malic acid], in data set [3], the “pK-values (first value)” value is 3.5 and the “pK-values (second value)” value is reported as 4.7.
